The record followed here is ChEMBL document CHEMBL4680271, “COVID-19: Drug Targets and Potential Treatments” (J Med Chem, 2020).

Test [1] addresses Procathepsin L (Homo sapiens) (UniProt P07711). Nature of the test: Inhibition of Cathepsin L in HEK293 cells harboring human ACE2 assessed as reduction in SARS-CoV-2 S pseudovirions entry into host cell pretreated for 1 hr followed by viral infection and measured after overnight incubation by luciferase method. To be noted: concentration not given here. The test is classed as cell-based.

A further test relates to SARS-CoV-2. Put plainly: Antiviral activity against nCoV-2019 BetaCoV/Wuhan/WIV04/2019 infected in African green monkey VeroE6 cells assessed as reduction in viral yield preincubated for 1 hr followed by viral infection and further replacement of fresh medium containing compound and measured at 48 hrs post infection by qRT-PCR method. The test is classed as functional, organism-based. To be noted: Severe acute respiratory syndrome coronavirus 2, BetaCoV/Wuhan/WIV04/2019, Vero C1008.

Sequence of Procathepsin L (Homo sapiens) (P07711 114-333 limits assumed): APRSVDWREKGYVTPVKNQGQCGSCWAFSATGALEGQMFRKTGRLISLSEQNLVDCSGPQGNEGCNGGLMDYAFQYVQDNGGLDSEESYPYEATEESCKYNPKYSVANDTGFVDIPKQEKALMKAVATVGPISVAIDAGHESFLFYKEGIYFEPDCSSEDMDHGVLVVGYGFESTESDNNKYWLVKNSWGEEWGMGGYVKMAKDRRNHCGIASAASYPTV

As usually defined, the inhibition is the drop in the measured response relative to a control, in per cent. As for `CCc1ccccc1NC(=O)CSC(=O)NNC(=O)[C@H](Cc1c[nH]c2ccccc12)NC(=O)OC(C)(C)C`, the inhibition in test [1] was above 76%.
By EC50 is commonly meant the concentration at which the effect is half-maximal. With `Nc1nc2c(ncn2CCC(CO)CO)c(=O)[nH]1` [PENCICLOVIR], in the test with SARS-CoV-2, the EC50 is 96 µM.
